Assay results reported in the supplement of paper PMC8882468.

Legend:
Assay in all cases: CTG-3D luminescence at 96 h relative to day-0 seeding control (ratio to day 0); higher = more growth / less cytotoxicity; PDxO 3D drug screen, 96 h, CTG-3D normalised to day-0 seeding control.
HCI-001 = tested on: HCI-001 (organoid from a triple-negative breast cancer xenograft)
HCI-002 = tested on: HCI-002 (organoid from a triple-negative breast cancer xenograft)
HCI-012 = tested on: HCI-012 (organoid from a breast cancer xenograft)
HCI-024 = tested on: HCI-024 (organoid from a breast cancer xenograft)

C[C@@H]1COCCN1c1cc(C2([S@](C)(=N)=O)CC2)nc(-c2cc[nH]c3nccc2-3)n1 [ceralasertib]
CTG-3D luminescence at 96 h
Settings	12.5 pM	0.00025 µM	0.005 µM	0.1 µM	1 µM	10 µM	100 µM	625 fM
HCI-001, days in culture: 240	1.54	0.962	0.905	0.752	1.11	0.512	0.536	1.21
HCI-001, days in culture: 260	1.68	0.899	1.81	1.66	1.19	0.492	0.35	1.32
HCI-001, days in culture: 269	1.61	1.65	1.82	1.79	1.06	0.544	0.577	1.54
HCI-001, days in culture: 327	1.41	1.4	1.77	1.47	1.36	0.335	0.479	1.44
HCI-001, days in culture: 346	1.56	1.49	1.38	1.3	1.02	0.456	0.658	1.26
HCI-001, days in culture: 364	1.44	1.19	1.23	1.16	0.732	0.301	0.319	1.52
HCI-002, days in culture: 62	2.73	2.51	2.76	3.04	1.81	1.12	0.574	2.93
HCI-002, days in culture: 82	2.71	2.85	2.13	2.4	1.5	0.818	0.274	2.8
HCI-002, days in culture: 91	4.35	3.4	4.02	3.58	2.23	1.3	0.523	4.14
HCI-002, days in culture: 191	2.46	2.89	2.17	2.66	1.91	0.976	0.332	2.6
HCI-002, days in culture: 209	2.37	2.28	1.9	2	1.41	0.743	0.29	2.27
HCI-002, days in culture: 227	6.44	5.73	5.38	5.47	3.08	1.48	0.366	6.05
HCI-012, days in culture: 143	2.09	2.04	2.05	2.14	1.8	0.748	0.319	2.02
HCI-012, days in culture: 162	2.52	2.31	2.18	3.14	1.92	1.3	0.451	3.18
HCI-012, days in culture: 201	2.62	2.22	1.56	1.68	2.3	0.577	0.973	1.75
HCI-024, days in culture: 105	1.68	1.61	1.35	1.5	0.841	0.567	0.521	1.93
HCI-024, days in culture: 122	2.12	2.11	1.89	2	1.23	0.742	0.54	2.57
HCI-024, days in culture: 163	1.95	1.91	1.68	2.32	1.38	0.897	0.977	2.29

Cc1cc(Nc2ncc(Cl)c(Nc3ccccc3S(=O)(=O)C(C)C)n2)c(OC(C)C)cc1C1CCNCC1 [ceritinib]
CTG-3D luminescence at 96 h
Settings	12.5 pM	0.00025 µM	0.005 µM	0.1 µM	1 µM	10 µM	100 µM	625 fM
HCI-001, days in culture: 240	1.82	1.14	1.07	1.15	0.858	0.121	-0.00201	1.26
HCI-001, days in culture: 260	2.25	1.05	1.67	1.28	1.21	0.018	-0.00298	1.55
HCI-001, days in culture: 269	1.92	1.77	1.43	1.82	1.23	-0.0266	-0.0412	1.9
HCI-001, days in culture: 327	1.58	1.14	1.9	1.78	1.24	0.164	-0.00344	1.92
HCI-001, days in culture: 346	1.59	1.27	1.16	1.24	1.19	0.45	-0.00215	1.39
HCI-001, days in culture: 364	1.52	1.11	1.4	0.954	1.13	0.315	-0.00387	1.85
HCI-002, days in culture: 62	2.84	2.62	3.08	2.52	2.11	0.00947	-0.00984	3.15
HCI-002, days in culture: 82	3.23	2.64	2.18	2.46	1.76	0.00838	-0.0057	2.72
HCI-002, days in culture: 91	4.25	3.86	3.52	4.11	3.29	0.00341	-0.0215	4.18
HCI-002, days in culture: 191	2.47	2.8	2.59	2.41	2.23	0.00759	-0.00732	2.72
HCI-002, days in culture: 209	2.4	2.59	2.23	2.14	2.03	0.00677	-0.00747	2.35
HCI-002, days in culture: 227	6.1	6.52	5.45	5.99	4.45	-0.223	-0.242	7.25
HCI-012, days in culture: 143	2.17	1.8	1.89	2.08	1.92	0.0093	-0.00596	2.32
HCI-012, days in culture: 162	2.32	2.04	1.68	2.9	2.19	0.0143	-0.00682	2.82
HCI-012, days in culture: 201	2.62	2.34	1.57	1.57	2.44	0.00702	-0.00682	1.54
HCI-024, days in culture: 105	1.05	1.3	1.22	1.29	1.11	0.00435	-0.0037	1.39
HCI-024, days in culture: 122	1.49	2.05	1.23	1.88	1.16	0.00674	-0.00377	2.07
HCI-024, days in culture: 163	2.38	2.03	1.59	2.47	1.74	0.107	-0.00554	2.78
